Test results published in PMC11990452, “Discovery of MAGL Inhibition by Lophine Derivatives: An Unexpected Finding from Chemiluminescent Assay Development” (Molecules, 2025).
pIC50: −log10 of the molar value.

What was measured:
[1] = target: T1, human recombinant monoacylglycerol lipase (hMAGL) (Homo sapiens, UniProt Q99685); experiment: fluorometric 7-HRO hydrolysis assay, residual activity at […]; assay type: biochemical
T1 construct: gene MGLL
T1 sequence (Q99685 1-303): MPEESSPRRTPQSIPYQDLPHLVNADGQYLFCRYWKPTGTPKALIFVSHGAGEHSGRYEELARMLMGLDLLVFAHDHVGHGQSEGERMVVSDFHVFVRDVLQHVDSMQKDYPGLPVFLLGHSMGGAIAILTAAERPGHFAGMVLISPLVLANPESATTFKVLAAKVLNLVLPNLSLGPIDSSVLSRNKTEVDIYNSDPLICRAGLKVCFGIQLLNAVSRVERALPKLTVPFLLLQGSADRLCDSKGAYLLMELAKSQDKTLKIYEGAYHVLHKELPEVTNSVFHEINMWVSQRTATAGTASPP

[2] = target: T1, human recombinant monoacylglycerol lipase (hMAGL); experiment: fluorometric 7-HRO hydrolysis assay with recombinant hMAGL; dilution reversibility and Lineweaver-Burk kinetics; assay type: biochemical

Row | pIC50 [2] | Compound | fluorometric 7-HRO hydrolysis assay, residual activity at 50 nM-100 μM [1]
1 | – | Oc1ccc(-c2nc(-c3ccccc3)c(-c3ccccc3)[nH]2)cc1 [compound 1, 2-(4-Hydroxyphenyl)-4,5-Diphenylimidazole] | all tested compounds interact with MAGL, leading to a concentration-dependent reduction in enzyme activity
2 | – | CCCC(=O)Oc1ccc(-c2nc(-c3ccccc3)c(-c3ccccc3)[nH]2)cc1 [compound 2, Butyric Acid Ester of 2-(4-Hydroxyphenyl)-4,5-Diphenylimidazole] | all tested compounds interact with MAGL, leading to a concentration-dependent reduction in enzyme activity
3 | 4.68 | CCCCCCCC(=O)Oc1ccc(-c2nc(-c3ccccc3)c(-c3ccccc3)[nH]2)cc1 [compound 3, Octanoic Acid Ester of 2-(4-Hydroxyphenyl)-4,5-Diphenylimidazole] | –
4 | 5.19 | CCCCCCCCCCCCCCCC(=O)Oc1ccc(-c2nc(-c3ccccc3)c(-c3ccccc3)[nH]2)cc1 [compound 4, Palmitic Acid Ester of 2-(4-Hydroxyphenyl)-4,5-Diphenylimidazole] | –
